Measurements taken from publication PMC8763243, “Synthesis of Novel Suramin Analogs With Anti-Proliferative Activity via FGF1 and FGFRD2 Blockade” (Frontiers in Chemistry, 2022).
Values joined by “and” are separate entries in the source; they are usually repeats but may differ in a detail not shown here. Equal entries are not always repeated.

Experiments:
FGF1 = target: T1, FGF1 (Homo sapiens, UniProt P05230); assay: Fluorescence spectroscopy binding constant of FGF1 and suramin derivatives; conditions: fluorescence quenching, 5 µM FGF1, non-linear regression with Stern–Volmer equation, pH 6.5
T1 construct: made in house
T1 sequence (P05230 whole entry): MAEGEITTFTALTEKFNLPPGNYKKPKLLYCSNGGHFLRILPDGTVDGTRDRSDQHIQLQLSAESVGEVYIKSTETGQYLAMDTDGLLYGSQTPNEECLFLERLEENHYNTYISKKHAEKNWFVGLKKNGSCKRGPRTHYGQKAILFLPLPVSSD
Description: The binding constant Kd was calculated for FGF1 and the five derivatives in a buffer containing 10% D2O, 50 mM AMS, 20 mM phosphate buffer, and 50 mM NaCl at pH 6.5 using an F-2500 Hitachi fluorescence spectrophotometer.
[…] has tremendous significance for biochemical application because it provides valuable knowledge about the probability of quencher activity. The anti-mitogenic activity of the five compounds was achieved by the same mechanism in which suramin inhibits the mitogenic activity of FGF1. A non-linear regression curve was plotted for the relative intensities of activity versus drug concentration using the Stern–Volmer equation (Eq. 1). log(F0−F)/F=logK+nlog[Q], (1)
where F0 represents the fluorescence intensity in the absence of the compounds, and F represents the fluorescence intensity in the presence of the [Q] concentration of the compounds.
Increasing concentrations of these five suramin derivatives were added to a solution containing 5 µM FGF1. A reduction in the fluorescence intensity was reported for all five suramin derivatives. The Stern–Volmer equation was used to calculate the binding constant between FGF1 and compounds 14, 15, 17, 18, and 21 for relative intensities versus the total concentration in a non-linear regression curve.

[1] = WST-1 assay, cytotoxicity in tumorigenic cells; type: cell-based, human; conditions: human; MCF-7 cells, 48 h, SigmaPlot; read-out: estimated IC50 (cytotoxicity)
Description: (§1) The water-soluble tetrazolium salt (WST-1) assay was performed to assess the effects of the compounds on cell proliferation and cytotoxicity. DMEM/F12 containing 10% FBS was used for the cell culture, and incubation was performed in 5% CO2 till the logarithmic growth phase was achieved. On the day before the experiment, the cells were trypsinized and seeded in a 96-well plate at a density of 5000 cells/well. For the FGF1-stimulated cell proliferation assay, the cells were then incubated for 24 h in a serum-free medium containing 0.1% bovine serum albumin (BSA). Serum-starved cells with or without a specified concentration of suramin, 14, 15, 17, 18, 21, and FGFRD2 were stimulated with 100 nM of FGF1 again for 48 h. For the purpose of the cytotoxicity assay, the cells were treated with an increased concentration of suramin and compounds 14, 17, 15, 18, and 21 (Figure 6) for 48 h. Also, 1/10 of the volume of WST-1 cell reagent was inserted in every well and maintained at 37°C for another 4 h before harvesting. There was gentle agitation of the medium in the cell culture plate for 10 min using a shaker. A Synergy 2 microplate reader (BioTek Instruments, Inc., VT, United States) was used to measure the absorbance at 450 nm. The relative absorbance was compared with the control treatment to determine the relative cell number.
(§2) […] […] The reason for the higher cytotoxicity was the presence of methyl groups on the suramin structure ([Martello et al., 2001]).
(§3) Suramin-induced neuropathy may depend on the effects on calcium (Ca^2+) homeostasis as a potential pathological mechanism, and the full or partial positive charge of the element when directly attached to the ring at each of the sulphonic groups (HSO3). These interactions exert a moderate to strong electron-withdrawing inductive effect, which may be responsible for the observed suramin cytotoxicity ([Prasetyaningrum et al., 2018]; [Von Der Ahe et al., 2018]). The cytotoxicity of the synthesized analogs was lower as there were methyl groups and no sulfonic acid groups attached to the suramin backbone. The IC50 values of the synthesized compounds in MCF-7 breast cancer cells were analyzed using SigmaPlot software.

MCF-7 cells = assay: WST-1 assay, cytotoxicity in tumorigenic cells; type: cell-based, human; conditions: for Mean (Blank 450) / Fold (mean) / Blank 450 / Fold: S8; for Fold (mean): relative to control; for Blank 450: single replicate absorbance; for Fold: single replicate relative to control
Description: as §1, §2, §3

[2] = WST-1 assay, cytotoxicity in normal breast epithelial cell line (non-tumorigenic); type: cell-based; conditions: human; non-tumorigenic MCF-10A cells; read-out: estimated IC50 (cytotoxicity)
Description: as §1
In order to gain some insight about the selectivity of the compounds between tumorigenic and non-tumorigenic cells, the cytotoxicity was also being evaluated against normal breast cell lines by examining the cytotoxicity of suramin and its derivatives, compounds 15, 18, and 21, in a normal breast epithelial cell line (non-tumorigenic), MCF-10A. […] Compared to their cytotoxicity in tumorigenic MCF-7 cells (Figure 6), the estimated IC50 values in MCF-10A were higher than those in MCF-7 cells. […] However, the estimated IC50 value of suramin and its derivatives in both non-tumorigenic MCF-10A and tumorigenic MCF-7 cells were over 100 μM. The effective concentrations of suramin and its derivatives to attenuate FGF1-stimulated cell proliferation in MCF-7 cells were around 1 μM (Figure 5), which is non-toxic concentration to both MCF-7 cells and MCF-10A cells. […] Therefore, in addition to the specificity of each drug, the selectivity of suramin and its derivatives to disrupt the FGF1/FGFR-mediated breast cancer growth might rely on the overexpression or amplification of FGFR2 in breast cancer cells, but not in normal cells, and the secreted FGF1 ligand by autocrine or paracrine effects from cancer cells or their surrounding stroma cells or adipocytes (tumor microenvironment). The statistical data for the cytotoxicity are shown in Supplementary Figure S8.

[3] = Exposure stability study by 1H NMR in DMSO-d6 and D2O; type: physicochemical; conditions: 0.017 mol/L in DMSO-d6 and D2O, 11 days
Description: The stability of the compounds was verified in both aqueous and DMSO solutions. In aqueous medium, the stability of the suramin derivatives 15 and 18 were considered to verify the stability. A control experiment consisting of a DMSO-d 6 (0.017 mol/L) solution of 15 and a D2O solution of 15 (0.017 mol/L) was maintained on the laboratory bench. All experiments were performed in NMR tubes containing 0.017 mol/L solutions of compounds 15 and 18 in DMSO-d 6 and D2O, respectively. NMR spectra were recorded over 11 days (initially daily for 1 week).
10 mg of the newly synthesized compound was diluted in 500 µL DMSO-d 6 under investigation in a 5-mm NMR tube. The procedure was maintained as it is for 11 days in the solution. The ^1H NMR spectrum was recorded daily for 4 days up to 11 days.
10 mg of the novel compound was diluted in 500 µL D2O under investigation in a 5-mm NMR tube. The procedure was maintained as it is for 11 days in the solution. The ^1H NMR spectrum was recorded daily for 4 days up to 11 days.

## O=C(Nc1ccc(C(=O)Nc2ccc(C(=O)Nc3cc(S(=O)(=O)O)cc4cc(S(=O)(=O)O)cc(S(=O)(=O)O)c34)cc2)cc1)Nc1ccc(C(=O)Nc2ccc(C(=O)Nc3cc(S(=O)(=O)O)cc4cc(S(=O)(=O)O)cc(S(=O)(=O)O)c34)cc2)cc1 [Compound 18, Sodium 8,8'-((4,4'-((4,4'-(carbonylbis (azanediyl))bis (benzoyl))bis (azanediyl))bis (benzoyl))bis(azanediyl)) bis (naphthalene-1,3,6-trisulfonate)]
FGF1
  Kd: 15.5 µM
[1]
  IC50 at 48 h: > 100 µM
MCF-7 cells; 1 uM
  Mean (Blank 450): 1.224
  Fold (mean): 1.05
  Blank 450: 1.234 and 1.224 and 1.182 and 1.256
  Fold: 1.059 and 1.050 and 1.014 and 1.078
MCF-7 cells; 5 uM
  Mean (Blank 450): 1.176
  Fold (mean): 1.01
  Blank 450: 1.176 and 1.214 and 1.141 and 1.173
  Fold: 1.009 and 1.042 and 0.979 and 1.007
MCF-7 cells; 10 uM
  Mean (Blank 450): 1.160
  Fold (mean): 1.00
  Blank 450: 1.108 and 1.161 and 1.207 and 1.165
  Fold: 0.951 and 0.996 and 1.036 and 1.000
MCF-7 cells; 50 uM
  Mean (Blank 450): 1.139
  Fold (mean): 0.98
  Blank 450: 1.184 and 1.149 and 1.053 and 1.169
  Fold: 1.016 and 0.986 and 0.904 and 1.003
MCF-7 cells; 100 uM
  Mean (Blank 450): 1.057
  Fold (mean): 0.91
  Blank 450: 1.098 and 1.004 and 1.043 and 1.081
  Fold: 0.942 and 0.862 and 0.895 and 0.928
MCF-7 cells; MCF-7 cells, 1-100 µM, 48 h, especially at concentrations higher than 10 µM
  cytotoxicity compared with suramin: less toxic
[2]
  IC50 at 48 h: 653.4 ± 2.31 µM
[3]
  stability in solution (1H NMR): remarkably stable
